Assays:
mRNA m^6A level in GSCs = assay: m6A mRNA dot blot of GSCs treated with MA2; type: cell-based, human; conditions: 50 μM MA2, 48 h, vs vehicle control
Procedure: m^6A dot blot assay: GSCs were either maintained in sphere cultures or induced into differentiation for 1 week using 0.5% fetal bovine serum (Sigma) together with 1 μM all-trans retinoic acid (Sigma). Total RNAs were isolated from these GSCs using Trizol reagent (Ambion). GSCs were transduced with lentivirus expressing METTL3 or METTL14 shRNA or METTL3 cDNA. Seven days after transduction, total RNAs were extracted. mRNAs were prepared from total RNAs using Dynabeads® mRNA purification kit (Ambion, Catalog #61006). Indicated amount of mRNAs was used for dot blot analysis using an antibody specific for m^6A (1:1,000; Synaptic Systems; Catalog #202003). The intensity of dot blot signal was quantified by Image J.
(§1) Treatment of GSCs with the FTO inhibitor MA2: GSCs were seeded at 5×10^4 cells per well in 48-well plates and cultured overnight. These cells were treated with MA2, a chemical inhibitor of FTO (Huang et al., 2015) at 20, 40, 60, 80 μM or vehicle control and cultured for 48 h. Cell number was counted using a hemocytometer. To determine the effect of MA2 on the level of m^6A RNA modification, GSCs were treated with 50 μM MA2 for 48 h. mRNAs were prepared and subjected to m^6A dot blot assay. To test the effect of MA2 in limiting dilution assay, GSCs were treated at 40 μM or vehicle control for two weeks.

PBT003 cells [1] = assay: Cell growth assay, MA2-treated GSCs (PBT003); type: cell-based, human; conditions: PBT003, 60 μM and 80 μM, 48 h
Procedure: as §1

PBT707 = assay: Cell growth assay, MA2-treated GSCs (PBT707); type: cell-based, human; conditions: 48 h
Procedure: as §1

PBT726 = assay: Cell growth assay, MA2-treated GSCs (PBT726); type: cell-based, human; conditions: 48 h
Procedure: as §1

PBT111 = assay: Cell growth assay, MA2-treated GSCs (PBT111); type: cell-based, human; conditions: 48 h
Procedure: as §1

[2] = system: normal neural stem cells (NSC) line NSC006; assay: Cell growth assay, control cells (NSC006); type: cell-based
brain astrocytes = assay: Cell growth assay, control cells (astrocytes); type: cell-based
HeLa cells = assay: Cell growth assay, control cells (HeLa); type: cell-based
GSCs [3] = assay: Limiting dilution assay of GSCs treated with MA2; type: cell-based, human; conditions: 40 μM, two weeks, vs control cells
Procedure: Limiting dilution assay: GSCs were transduced with relevant shRNA or METTL3-expressing lentivirus. The transduced GSCs were seeded at 1, 5, 10, 20, 50 and 100 cells per well into 96-well plates. The number of neurospheres in each well was counted two weeks after seeding cells. Extreme limiting dilution analysis was performed using software available at http://bioinf.wehi.edu.au/software/elda.
as §1

GSCs [4] = assay: Sphere formation assay of METTL3 or METTL14 KD GSCs with MA2; type: cell-based, human; conditions: together with MA2
Procedure: Sphere formation assay: The sphere formation assay was performed as previously described (Cui et al., 2016). Briefly, three days after viral transduction, the transduced cells were seeded at 1 cell per well in 96-well plates (for those associated with the limiting dilution assay) or 100 cells per well in 48-well plates and cultured for 2 weeks. The sphere number was counted under microscope. The sphere formation rate was defined as the percentage of sphere-forming cells out of the number of starting cells.

PBT003 cells [5] = assay: Intratumoral MA2 in PBT003-grafted NSG mice; type: in vivo; conditions: vs vehicle control
Procedure: Introcranial delivery of the FTO inhibitor MA2: PBT003 cells (2×10^5) transduced with luciferase expressing lentivirus were intracranially transplanted into the frontal lobe of NSG mice at the same coordinates as described above. One week after transplantation, tumors were detected by bioluminescence imaging and mice were treated with MA2 (5 μl of 600 μM MA2 in 1% DMSO in PBS per mouse) or vehicle control by intratumoral injection once a week for four weeks. Tumor growth was monitored by bioluminescence imaging every week for six weeks. The bioluminescence intensity was quantified.
To test the effect of the FTO inhibitor on GSC-initiated tumorigenesis, PBT003-grafted mice were treated with the selective FTO inhibitor MA2 intratumorally once a week for four weeks (FIG. 11d). Tumor formation was monitored by bioluminescence xenogen imaging.

[6] = system: ADAM19, EPHA3, and KLF4 expression in PBT003 cells; assay: RT-PCR of oncogene expression in GSCs; type: cell-based, human
Procedure: RT-PCR: Total RNAs isolated using Trizol reagent (Ambion) were subjected to reverse transcription (RT) performed using the Tetro cDNA synthesis Kit (BioLINE). RT-PCR reactions were performed using SYBR Green Master Mix (Thermo Scientific) on the Step One Plus Real-Time PCR instrument (Applied Biosystems). The primers for RT-PCR include METLL3 (F 5′-TCAGCATCGGAACCAGCAAAG-3′ (SEQ ID NO: 8); R 5′-TCCTGACTGACCTTCTTGCTC-3′ (SEQ ID NO: 9)), METLL14 (F 5′-GTTGGAACATGGATAGCCGC-3′ (SEQ ID NO: 10); R 5′-CAATGCTGTCGGCACTTTCA-3′ (SEQ ID NO: 11)), CD44 (F 5′-TGAGCATCGGATTTGAGACC-3′ (SEQ ID NO: 12); R 5′-TGTCATACTGGGAGGTGTTGG-3′ (SEQ ID NO: 13)), ADAM19 (F 5′-CCTGGATGGACAAGAGGAAG-3′ (SEQ ID NO: 14); R 5′-CTCAGCTTTGAGTGGATGCT-3′ (SEQ ID NO: 15)), EPAH3 (F 5′-GGGCTGGATCTCTTATCCATC-3′ (SEQ ID NO: 16); R 5′-GGACCCAGTTTGTTCTCAGC-3′ (SEQ ID NO: 17)), KLF4 (F 5′-AAGAGTTCCCATCTCAAGGC-3′ (SEQ ID NO: 18); R 5′-CCGTGTGTTTACGGTAGTGC-3′ (SEQ ID NO: 19)), and ACTIN (F 5′-CCGCAAAGACCTGTACGCCAAC-3′ (SEQ ID NO: 20); R 5′-CCAGGGCAGTGATCTCCTTCTG-3′ (SEQ ID NO: 21)). ACTIN was included as the reference gene for normalization. The ΔΔCt method was used for quantification analysis.

FTO = FTO (Homo sapiens, UniProt Q9C0B1); conditions: Huang et al., 2015; cited from earlier work
Chain of FTO (Q9C0B1 whole entry): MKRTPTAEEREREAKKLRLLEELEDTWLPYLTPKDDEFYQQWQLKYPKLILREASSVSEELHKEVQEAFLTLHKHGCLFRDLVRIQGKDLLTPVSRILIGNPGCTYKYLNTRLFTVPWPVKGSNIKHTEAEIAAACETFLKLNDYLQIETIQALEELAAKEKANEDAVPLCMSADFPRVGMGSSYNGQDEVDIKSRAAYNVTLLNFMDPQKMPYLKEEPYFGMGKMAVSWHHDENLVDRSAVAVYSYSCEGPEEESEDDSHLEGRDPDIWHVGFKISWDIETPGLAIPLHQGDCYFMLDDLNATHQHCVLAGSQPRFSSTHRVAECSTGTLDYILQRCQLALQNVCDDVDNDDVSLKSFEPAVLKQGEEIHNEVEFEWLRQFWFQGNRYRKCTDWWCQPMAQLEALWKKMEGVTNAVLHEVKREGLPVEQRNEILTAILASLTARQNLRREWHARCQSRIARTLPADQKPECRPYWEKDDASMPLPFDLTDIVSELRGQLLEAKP

CCOC(=O)c1ccccc1Nc1c(Cl)ccc(C)c1Cl [MA2, ethyl ester form of meclofenamic acid (MA)]
mRNA m^6A level (mRNA m^6A level in GSCs): substantial increase | cell growth (PBT003 cells [1]): dramatic growth inhibitory effect | cell growth (PBT707; PBT707, 40 μM): suppressed the growth | cell growth (PBT707; PBT707, 60 μM and 80 μM): substantial inhibitory effect | cell growth (PBT726; PBT726, 40 μM): suppressed the growth | cell growth (PBT726; PBT726, 60 μM and 80 μM): substantial inhibitory effect | cell growth (PBT111; PBT111, 20 μM and 40 μM): inhibited the growth | cell growth (PBT111; PBT111, 60 μM and 80 μM): substantial inhibitory effect | cell growth ([2]; NSC006, up to 60 μM): no substantial effect | cell growth ([2]; NSCs, 80 μM): Mild effect | cell growth (brain astrocytes; astrocytes, 80 μM): Mild effect | cell growth (brain astrocytes; brain astrocytes, up to 60 μM): no substantial effect | cell growth (HeLa cells; 80 μM): Mild effect | cell growth (HeLa cells; up to 60 μM): no substantial effect | self-renewal of GSCs (stem cell frequency) (GSCs [3]): dramatically inhibited the self-renewal | sphere formation rate (GSCs [4]): reversed the effect of elevated sphere formation rate | tumor luciferase activity (PBT003 cells [5]; 4 or 5 weeks after compound treatment): significant decrease | tumor size by bioluminescence xenogen imaging (PBT003 cells [5]; intratumoral, once a week for four weeks): much smaller tumors | survival (PBT003 cells [5]; log-rank test): substantially prolonged survival | expression of ADAM19, EPHA3, and KLF4 [6]: decreased expression | FTO inhibition (FTO): selective inhibitor of FTO

From patent publication US20250082733A1, “m6A mRNA MODIFICATION IN CANCER TREATMENT” (CITY OF HOPE, priority 2017, published 2025)
